≈ marks a conversion by molar mass, not a printed value.
Columns and labels:
Penicillium chrysogenum = assay: Antifungal activity against Penicillium chrysogenum assessed as diameter of zone of inhibition at 100 ug/ml by cup-plate agar diffusion method; type: functional; details: read-out: IZ
Bacillus subtilis [1] = assay: Antibacterial activity against Bacillus subtilis ATCC 6633 assessed as zone of inhibition; type: functional
Staphylococcus aureus [2] = assay: Antibacterial activity against Staphylococcus aureus assessed as zone of inhibition at 100 ug/ml by cup-plate agar diffusion method; type: functional; details: read-out: IZ
Salmonella paratyphi = assay: […] activity against Salmonella enterica subsp. enterica serovar Paratyphi A assessed as zone of inhibition at 100 ug/ml by cup-plate agar diffusion method; type: functional; details: read-out: IZ
Aspergillus niger = assay: Antifungal activity against Aspergillus niger assessed as diameter of zone of inhibition at 100 ug/ml by cup-plate agar diffusion method; type: functional; details: read-out: IZ
[3] = Half life in human at 6 mg/kg; type: ADME, organism-based; details: in vivo
MIA PaCa-2 = assay: Cytotoxicity against human MIA PaCa-2 cells; type: functional, cell-based
[4] = Inhibition of EGFR2 (unknown origin); parameters: species or system Homo sapiens
[5] = Terminal half life in human plasma; type: ADME, cell-free; details: read-out: beta t1/2 (converted)
Beta-secretase 1 = Beta-secretase 1 (Homo sapiens, UniProt P56817); assay: Inhibition of human recombinant BACE1 expressed in HEK293 cells by FRET assay; type: cell-based
[6] = Elimination half life in human at 0.8 mg/kg, sc; type: ADME, organism-based; details: in vivo, read-out: LambdaZ (converted)
Rattus norvegicus [7] = assay: Anti-inflammatory activity against carrageenan-induced paw edema in Albino rat assessed as inhibition of paw edema at 50 mg/kg, po relative to control; type: functional; parameters: scale not given: the % may be the effect or the level left
Rattus norvegicus [8] = assay: Anti-inflammatory activity against carrageenan-induced paw edema in Wistar rat assessed as inhibition of paw edema at 20 mg/kg, po by H and E staining based analysis relative to control; type: functional; parameters: scale not given: the % may be the effect or the level left
A549 = assay: Growth inhibition of human A549 cells by SRB assay; type: functional
[9] = Half life in human at 0.7 mg/kg, po; details: in vivo
HepG2 = assay: Antiproliferative activity against human HepG2 cells assessed as reduction in cell growth measured for 96 hrs by Neutral red uptake assay; type: functional, cell-based; details: HepG2, 96 h
Acetylcholinesterase [10] = molecular target: T1, Acetylcholinesterase (Homo sapiens, UniProt P22303); assay: Inhibition of AChE (unknown origin)
Cholinesterase = Cholinesterase (Homo sapiens, UniProt P06276); assay: Inhibition of BChE (unknown origin)
Streptococcus pneumoniae [11] = assay: Antimicrobial activity against Streptococcus pneumoniae assessed as diameter of zone of inhibition by agar diffusion method; type: functional
Bacillus subtilis [12] = assay: Antimicrobial activity against Bacillus subtilis assessed as diameter of zone of inhibition by agar diffusion method; type: functional
MCF7 = assay: Cytotoxicity against human MCF7 cells assessed as reduction in cell viability; type: functional, cell-based
[13] = Half life in human at 15 mg/kg, po; type: ADME, organism-based; details: in vivo
SMMC-7721 = assay: cells; details: Homo sapiens, SMMC-7721, 72 h
Description: Antiproliferative activity against human SMMC-7721 cells assessed as reduction in cell viability measured for 72 hrs by MTT assay

Streptococcus pneumoniae [14] = assay: Antimicrobial activity against Streptococcus pneumoniae assessed as reduction in cell growth by XTT assay; type: functional, organism-based
Staphylococcus aureus [15] = assay: Antimicrobial activity against Staphylococcus aureus assessed as reduction in cell growth by XTT assay; type: functional, organism-based
[16] = Terminal half life in human at 2.5 mg/kg, po; type: ADME, organism-based; details: in vivo, read-out: beta t1/2 (converted)
Escherichia coli = assay: Antimicrobial activity against Escherichia coli assessed as diameter of zone of inhibition; type: functional
clinical = details: human
[17] = Terminal half life in human; type: ADME; details: read-out: beta t1/2 (converted)
Acetylcholinesterase [18] = molecular target: T1, Acetylcholinesterase; assay: Inhibition of AChE (unknown origin) using acetylthiocholine iodide as substrate by Ellman's spectrophotometric analysis
[19] = Half life in po dosed human plasma; type: ADME, organism-based
HCT-116 = assay: Cytotoxicity against human HCT-116 cells assessed as reduction in cell growth incubated for 24 hrs by MTT assay; type: functional, cell-based; details: HCT-116, 24 h
SF-295 = assay: Cytotoxicity against human SF-295 cells assessed as reduction in cell growth incubated for 24 hrs by MTT assay; type: functional, cell-based; details: SF-295, 24 h
HL-60 = assay: Cytotoxicity against human HL-60 cells assessed as reduction in cell growth incubated for 24 hrs by MTT assay; type: functional, cell-based; details: HL-60, 24 h
OVCAR-8 = assay: Cytotoxicity against human OVCAR-8 cells assessed as reduction in cell growth incubated for 24 hrs by MTT assay; type: functional, cell-based; details: OVCAR-8, 24 h
[20] = Half life of compound; type: physicochemical
[21] = molecular target: Amine oxidase [flavin-containing] B (Homo sapiens, UniProt P27338); assay: Inhibition of human recombinant MAO-B extracted from baculovirus infected in BTI-TN-5B1-4 insect cells incubated for 20 mins by Amplex Red reagent based fluorescence analysis; type: cell-based
Chain of Amine oxidase [flavin-containing] B (P27338 whole entry): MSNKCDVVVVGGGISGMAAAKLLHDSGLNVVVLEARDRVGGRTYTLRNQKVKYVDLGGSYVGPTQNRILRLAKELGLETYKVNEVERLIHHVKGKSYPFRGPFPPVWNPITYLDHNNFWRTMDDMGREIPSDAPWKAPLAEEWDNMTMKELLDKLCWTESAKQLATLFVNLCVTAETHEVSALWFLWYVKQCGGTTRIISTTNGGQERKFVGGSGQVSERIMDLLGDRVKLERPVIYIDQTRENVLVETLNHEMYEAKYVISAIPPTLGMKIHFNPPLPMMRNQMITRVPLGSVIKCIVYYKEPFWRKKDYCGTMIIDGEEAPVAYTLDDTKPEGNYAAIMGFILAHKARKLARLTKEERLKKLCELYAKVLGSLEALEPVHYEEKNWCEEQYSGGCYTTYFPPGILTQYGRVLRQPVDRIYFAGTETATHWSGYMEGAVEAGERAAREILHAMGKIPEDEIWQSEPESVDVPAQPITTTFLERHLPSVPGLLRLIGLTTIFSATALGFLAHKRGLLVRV

T1 sequence (P22303 whole entry): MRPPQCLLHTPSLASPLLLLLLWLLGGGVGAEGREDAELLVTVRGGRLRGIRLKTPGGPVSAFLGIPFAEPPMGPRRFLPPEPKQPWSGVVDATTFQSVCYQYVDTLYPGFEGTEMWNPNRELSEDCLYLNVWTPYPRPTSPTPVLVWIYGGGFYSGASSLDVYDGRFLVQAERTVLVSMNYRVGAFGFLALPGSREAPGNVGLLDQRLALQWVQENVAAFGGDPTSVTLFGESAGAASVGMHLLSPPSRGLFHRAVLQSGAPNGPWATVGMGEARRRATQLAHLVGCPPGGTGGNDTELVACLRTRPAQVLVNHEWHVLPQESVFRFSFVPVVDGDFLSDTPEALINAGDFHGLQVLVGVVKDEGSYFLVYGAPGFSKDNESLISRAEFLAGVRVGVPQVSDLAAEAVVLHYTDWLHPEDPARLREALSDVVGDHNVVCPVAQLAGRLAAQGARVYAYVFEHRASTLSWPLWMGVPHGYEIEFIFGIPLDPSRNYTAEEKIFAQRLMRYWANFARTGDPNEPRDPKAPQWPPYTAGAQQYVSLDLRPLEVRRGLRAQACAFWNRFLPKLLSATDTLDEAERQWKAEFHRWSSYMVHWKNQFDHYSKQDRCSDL
Chain of Cholinesterase (P06276 whole entry, the tested form may be a part): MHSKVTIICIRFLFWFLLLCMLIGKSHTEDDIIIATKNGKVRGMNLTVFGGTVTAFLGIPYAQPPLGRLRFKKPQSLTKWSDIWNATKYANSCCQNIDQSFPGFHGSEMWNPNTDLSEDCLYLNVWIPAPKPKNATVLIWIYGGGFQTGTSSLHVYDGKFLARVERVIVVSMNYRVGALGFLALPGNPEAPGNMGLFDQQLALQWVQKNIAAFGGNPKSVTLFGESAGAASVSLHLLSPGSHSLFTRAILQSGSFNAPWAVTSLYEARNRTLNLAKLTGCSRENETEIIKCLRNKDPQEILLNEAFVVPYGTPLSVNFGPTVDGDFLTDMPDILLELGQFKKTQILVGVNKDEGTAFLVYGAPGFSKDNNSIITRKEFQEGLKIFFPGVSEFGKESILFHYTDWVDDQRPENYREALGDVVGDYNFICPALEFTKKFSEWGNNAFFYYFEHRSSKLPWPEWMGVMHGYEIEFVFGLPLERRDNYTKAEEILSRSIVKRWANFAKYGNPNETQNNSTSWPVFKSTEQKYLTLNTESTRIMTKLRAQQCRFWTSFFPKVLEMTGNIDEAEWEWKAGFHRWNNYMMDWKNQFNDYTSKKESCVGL
Chain of Beta-secretase 1 (P56817 whole entry): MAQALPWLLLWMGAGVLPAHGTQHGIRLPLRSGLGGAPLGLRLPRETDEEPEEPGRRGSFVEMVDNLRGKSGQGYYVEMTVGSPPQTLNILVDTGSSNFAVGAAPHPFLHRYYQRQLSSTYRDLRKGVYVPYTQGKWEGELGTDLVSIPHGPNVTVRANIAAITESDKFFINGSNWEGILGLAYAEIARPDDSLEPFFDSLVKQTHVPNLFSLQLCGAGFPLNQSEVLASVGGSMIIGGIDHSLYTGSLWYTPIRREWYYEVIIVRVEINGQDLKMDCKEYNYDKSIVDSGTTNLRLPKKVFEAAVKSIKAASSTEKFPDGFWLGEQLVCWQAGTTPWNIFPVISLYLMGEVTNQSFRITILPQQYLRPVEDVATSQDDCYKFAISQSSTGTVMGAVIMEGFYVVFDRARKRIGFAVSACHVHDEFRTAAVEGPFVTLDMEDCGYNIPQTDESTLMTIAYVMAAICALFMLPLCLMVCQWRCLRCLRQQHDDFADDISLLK

NC1=C(C(=O)Nn2c(=O)cc(-c3ccccc3)c3ccc(O)cc32)SCC1
zone of inhibition at 100 µg/mL (Penicillium chrysogenum): 27 mm

Cc1cc2ccc(O)cc2n(NC(=O)c2sc3cc(F)ccc3c2N)c1=O
inhibition zone (IZ) (Bacillus subtilis [1]): 25 mm | zone of inhibition at 100 µg/mL (Staphylococcus aureus [2]): 23 mm | zone of inhibition at 100 µg/mL (Salmonella paratyphi): 22 mm | zone of inhibition at 100 µg/mL (Aspergillus niger): 26 mm

CCN[C@H]1CN(CCCOC)S(=O)(=O)c2sc(S(N)(=O)=O)cc21 [BRINZOLAMIDE]
half-life [3]: 111 h

CN1CCN(CC(=O)Nc2sc3c(c2C#N)CCC(C(C)(C)C)C3)CC1 (configuration not stated)
IC50 (MIA PaCa-2): 13.4 µM | IC50 [4]: 0.68 µM

CCCN(CCc1cccs1)[C@H]1CCc2c(O)cccc2C1 [ROTIGOTINE]
half-life [5]: 7 h

COC(=O)c1cc(C)cc2sc3cccc(OC)c3c12
IC50 (Beta-secretase 1): 0.6 µM

NC(N)=NCCC[C@@H](N)C(=O)N[C@@H](CCCN=C(N)N)C(=O)N1CCC[C@H]1C(=O)N1C[C@H](O)C[C@H]1C(=O)NCC(=O)N[C@@H](Cc1cccs1)C(=O)N[C@@H](CO)C(=O)N1Cc2ccccc2C[C@@H]1C(=O)N1[C@H](C(=O)N[C@@H](CCCN=C(N)N)C(=O)O)C[C@@H]2CCCC[C@@H]21 [ICATIBANT]
half-life [6]: 1.4 h

CC(=O)c1c(Nc2ccc(C)cc2)sc(-c2nc3ccccc3c(=O)n2-c2ccc(Cl)cc2)c1C
Activity (Rattus norvegicus [7]): 58.6% | Activity (Rattus norvegicus [8]): 48.94%

CCOC(=O)c1c(/N=C/c2ccc(Br)cc2)sc2c1CCCC2
GI50 (A549): 8.04 µM

COC(=O)[C@H](c1ccccc1Cl)N1CCc2sccc2C1 [CLOPIDOGREL]
half-life [9]: 6 h

COc1ccc(C2=NNC(=O)c3c(sc(C(N)=O)c3C)N2)cc1
IC50 (HepG2): 4.37 µg/mL (≈ 13.2 µM)

O=C(NNC(=S)Nc1ccccc1[N+](=O)[O-])c1sccc1Cl
IC50 (Acetylcholinesterase [10]): 0.4 µM | IC50 (Cholinesterase): 1.9 µM

CCOC(=O)c1c(Nc2ccccc2)sc(C2=CN3NCC=C3N2)c1-c1ccccc1
inhibition zone (IZ) (Streptococcus pneumoniae [11]): 12.3 mm | inhibition zone (IZ) (Bacillus subtilis [12]): 12.7 mm

O=C1S/C(=C\c2cccc(Cl)c2Cl)C(=O)N1Cc1nnc(-c2cccs2)o1
IC50 (MCF7): 4.83 µg/mL (≈ 11 µM)

Cc1cc2c(s1)Nc1ccccc1N=C2N1CCN(C)CC1 [OLANZAPINE]
half-life [13]: 21 h

O=C(Nc1ccsc1C(=O)N/N=C/c1ccc(F)cc1)c1ccc(Cl)cc1Cl
IC50 (SMMC-7721): 0.32 µM

CCOC(=O)c1c(Nc2ccccc2)sc(Cc2ccc(-n3cnnn3)cc2)c1N
IC50 (Streptococcus pneumoniae [14]): 9.83 µg/mL (≈ 23.4 µM) | IC50 (Staphylococcus aureus [15]): 7.62 µg/mL (≈ 18.1 µM)

CCCCc1ncc(/C=C(\Cc2cccs2)C(=O)O)n1Cc1ccc(C(=O)O)cc1 [EPROSARTAN]
half-life [16]: 5 h

NC(=S)N/N=C(\C=C\c1ccc(Cl)cc1Cl)c1cccs1
inhibition zone (IZ) (Escherichia coli): 15 mm

Clc1ccccc1CN1CCc2sccc2C1 [TICLOPIDINE]
half-life (clinical): 7.9 h

O=C(NC[C@H]1CN(c2ccc(N3CCOCC3=O)cc2)C(=O)O1)c1ccc(Cl)s1 [RIVAROXABAN]
half-life [17]: 5 h

FC(F)(F)c1cccc(-c2cc(-c3cccs3)n(-c3ccc(Br)cc3)n2)c1
IC50 (Acetylcholinesterase [18]): 0.00048 µM

CN1CCC(=C2c3ccccc3CC(=O)c3sccc32)CC1 [KETOTIFEN]
half-life [19]: 3 h

COc1cccc(/C=N/NC(=O)c2cccs2)c1O
IC50 (HCT-116): 0.82 µM | IC50 (SF-295): 0.82 µM | IC50 (HL-60): 0.82 µM | IC50 (OVCAR-8): 0.82 µM

CCN[C@H]1C[C@H](C)S(=O)(=O)c2sc(S(N)(=O)=O)cc21 [DORZOLAMIDE]
t1/2 [20]: 4 months

O=c1oc2cc(O)ccc2cc1-c1cc(Br)cs1
IC50 [21]: 0.14 µM
